In US20080319065A1, “Systemic and Intrathecal Effects of a Novel Series of Phospholipase A2 Inhibitors on Hyperalgesia and Spinal Pge2 Release” (The Regents of the University of California, priority 2005, published 2008):

Columns and labels:
[1] = tested on: carrageenan-induced thermal hyperalgesia; assay: Carrageenan-induced thermal hyperalgesia, paw withdrawal latency; assay type: in vivo, rat
Source text: Male Holtzman Sprague-Dawley rats (300-350 g; Harlan Industries) were individually housed and maintained on a 12-hr light/dark cycle with free access to food and water. For spinal drug injections, lumbar catheters were implanted in rats under isoflurane anesthesia according to a modification of the procedure described by Yaksh (Yaksh and Rudy, supra, 1976). A polyethylene catheter (PE-5; Spectranetics, 0.014 in OD) was inserted into the intrathecal space and advanced to the rostral edge of the lumbar enlargement through an incision in the atlanto-occipital membrane. Five days after implantation rats were entered into the study. In separate experiments to assess spinal prostaglandins release, rats were prepared with lumbar loop dialysis catheters with three lumens, as previously described, see (Yaksh, et al., supra, 2001). Thermal hyperalgesia. Two approaches were employed to initiate a hyperalgesic state. An inflammation-evoked thermal hyperalgesia was induced by subcutaneous injection of 2 mg of carrageenan (Sigma, St. Louis, Mo., 100 μl of […] solution (w/v) in physiological saline) into the plantar surface of the left hind paw. To assess the thermally-evoked paw-withdrawal response, a commercially available device modeled after that described by Hargreaves and colleagues (Hargreaves, Pain, 32:77-88, 1988) was used (see, Dirig and Yaksh, Neurosci. Lett., 220:93-96, 1996; Dirig, et al., J. Neurosci. Methods, 76:183-191, 1997). In brief, the device consisted of a glass surface (maintained at 25° C.) on which the rats are placed individually in Plexiglas cubicles (9×22×25 cm). The thermal nociceptive stimulus originated from a focused projection bulb positioned below the glass surface. The stimulus was delivered separately to either hind paw of each test subject with the aid of an angled mirror mounted on the stimulus source. A timer was actuated with the light source, and latency was defined as the time required for the paw to show a brisk withdrawal as detected by photodiode motion sensors that stop the timer and terminate the stimulus. Paw withdrawal latencies (PWL) were assessed prior to any treatment (control) and at intervals after treatment. Left (injured) and right (uninjured) paw withdrawal latencies were assessed and plotted versus time. In addition, difference latency scores (uninjured-injured) were calculated and the average withdrawal latency over the post-injection observation intervals are calculated for comparison between treatment groups. Drugs were delivered systemically (IP) or spinally (IT). Intraperitoneal drugs were delivered uniformly in doses prepared in volumes of 0.5 ml/kg. Drugs injected IT were administered in a total volume of […] followed by a 10 μl flush using vehicle.

[2] = target: T1, GVIA PLA2 (Homo sapiens, UniProt O60733); assay: Time dependence and reversibility of GVIA PLA2 inhibition; assay type: biochemical
T1 sequence (O60733 1-806): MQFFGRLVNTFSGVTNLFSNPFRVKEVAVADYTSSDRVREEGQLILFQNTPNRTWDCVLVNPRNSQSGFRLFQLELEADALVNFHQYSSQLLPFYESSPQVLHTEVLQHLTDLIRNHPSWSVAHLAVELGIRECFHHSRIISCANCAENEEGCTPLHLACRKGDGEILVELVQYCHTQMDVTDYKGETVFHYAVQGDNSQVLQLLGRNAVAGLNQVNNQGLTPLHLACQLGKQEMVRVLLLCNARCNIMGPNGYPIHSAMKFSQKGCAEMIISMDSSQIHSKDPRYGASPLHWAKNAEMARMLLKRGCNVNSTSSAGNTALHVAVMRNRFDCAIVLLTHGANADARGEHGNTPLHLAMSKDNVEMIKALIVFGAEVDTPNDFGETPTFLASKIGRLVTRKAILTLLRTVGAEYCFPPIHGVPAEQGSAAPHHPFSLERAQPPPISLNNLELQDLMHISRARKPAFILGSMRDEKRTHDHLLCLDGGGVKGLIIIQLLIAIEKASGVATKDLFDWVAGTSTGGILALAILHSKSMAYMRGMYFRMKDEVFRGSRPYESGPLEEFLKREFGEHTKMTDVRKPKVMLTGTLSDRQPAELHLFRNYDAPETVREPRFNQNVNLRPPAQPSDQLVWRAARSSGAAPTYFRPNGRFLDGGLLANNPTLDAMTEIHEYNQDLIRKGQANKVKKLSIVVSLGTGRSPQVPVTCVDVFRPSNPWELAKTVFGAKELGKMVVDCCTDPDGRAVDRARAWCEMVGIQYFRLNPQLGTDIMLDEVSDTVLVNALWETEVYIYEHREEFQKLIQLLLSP
Method: GVIA PLA2 (25 ng) was preincubated with either AX010 or AX0073 (5 μM) for 0, 5, 15 or 30 minutes and then assayed in the standard GVIA PLA2 assay mix containing 5 μM inhibitor. The final concentration of the inhibitors in the assay mix was 0.01 mole fraction, and the samples were incubated for 30 minutes at 40° C. […] In the latter respect, 25 ng of GVIA PLA2 was pre-incubated with 10 μM AX010 or AX073 for 10 minutes before diluting the enzyme 1:50 into the standard GVIA PLA2 assay mix lacking inhibitor, and incubating for 30 minutes at 40° C. The final inhibitor concentration in these assays was 0.0004 mole fraction, well below surface concentrations that either AX010 or AX073 inhibit the enzyme.

[3] = tested on: murine RAW 264.7 macrophage-like cell line; assay: Long-term LPS stimulation, PGE2 release; assay type: cell-based
Method: Several 2-oxoamides were tested in the long-term lipopolysaccharide (LPS) stimulation pathway in the murine RAW 264.7 macrophage-like cell line. (Raschke, et al., Cell, 1978, 15, 261-267). This pathway requires GIVA PLA2 activity and results in the extracellular release of many eicosanoid compounds including the prostaglandin PGE2. (Gijon, et al., leukoc. Biol., 1999, 65, 330-336). […] In the low μM range, AX041 and AX073 reduced PGE2 release by roughly 40% (FIG. 1(D)). At 1 μM and 5 μM concentrations, small activations were often seen. The in vitro and cellular results together are consistent with the known roles of GVIA PLA2 given that AX010, a selective GVIA inhibitor, had no cellular effect. […] Inhibitors selective for GIVA PLA2 or dual specificity inhibitors reduce PGE2 levels, also consistent with the known role of GIVA PLA2 in PGE2 production.

Row | SMILES | melting point [°C] | antihyperalgesic effect by pretreatment interval ([1]; 3 mg/kg IP, 15 min before carrageenan) | antihyperalgesic effect by pretreatment interval ([1]; 3 mg/kg IP, 30 min before carrageenan) | reduction of carrageenan thermal hyperalgesia ([1]; 3 mg/kg IP, 30 min pretreatment) | antihyperalgesic effect by pretreatment interval ([1]; 3 mg/kg IP, 180 min before carrageenan) | antihyperalgesic effect by pretreatment interval ([1]; 3 mg/kg IP, 360 min before carrageenan) | dose dependency of anti-hyperalgesic effect ([1]; IP, 0.2-3 mg/kg) | ED50 ([1]; Rattus norvegicus, IP, carrageenan thermal hyperalgesia, read-out: IP ED50, dose that reduced the hyperalgesia by 50%) [mg/kg] | attenuation of carrageenan thermal hyperalgesia ([1]; intrathecal 30 μg/10 μL, 15 min pretreatment) | reversibility of GVIA PLA2 inhibition ([2]; pre-incubated with 10 μM for 10 minutes, diluted 1:50, final 0.0004 mole fraction) | time-dependent inhibition of GVIA PLA2 ([2]; preincubated 0, 5, 15 or 30 minutes, 5 μM inhibitor, 0.01 mole fraction) | inhibition of PGE2 release, in words [3]
1 | CCCCCCCCCCCCCCC(=O)C(=O)NCCCC(=O)OCC [AX048, Ethyl 4-[(2-oxohexadecanoyl)amino]butanoate] | 63 to 64 | minimal effects | peak effects | reduced the thermal hyperalgesia | effects persisted | no different from the control | dose-dependent | 1.2 | attenuated the thermal hyperalgesia | – | – | –
2 | CCC(=O)C(=O)NCCCC(=O)OC [AX010] | – | – | – | – | – | – | – | – | – | freely reversible inhibitors | no increased potency with prolonged incubation | did not inhibit PGE2 release
